In US12583861B2, “Derivatives of imidazo[4,5-d]pyridazine, their preparation and their therapeutic application” (SANOFI, priority 2021, dated 2026):

How the values were obtained:
human TLR7 = target: T1, human TLR7 (Homo sapiens, UniProt Q9NYK1); experiment: HEK-Blue hTLR7 reporter cell assay (SEAP, NF-kB/AP-1) for stimulation of human TLR7; assay type: cell-based; settings: HEK-Blue hTLR7 cells, 24 h incubation, SEAP readout; read-out: TLR7_EC50
T1 construct: host or cells: HEK293 (HEK-Blue hTLR7)
T1 sequence (Q9NYK1 27-1049): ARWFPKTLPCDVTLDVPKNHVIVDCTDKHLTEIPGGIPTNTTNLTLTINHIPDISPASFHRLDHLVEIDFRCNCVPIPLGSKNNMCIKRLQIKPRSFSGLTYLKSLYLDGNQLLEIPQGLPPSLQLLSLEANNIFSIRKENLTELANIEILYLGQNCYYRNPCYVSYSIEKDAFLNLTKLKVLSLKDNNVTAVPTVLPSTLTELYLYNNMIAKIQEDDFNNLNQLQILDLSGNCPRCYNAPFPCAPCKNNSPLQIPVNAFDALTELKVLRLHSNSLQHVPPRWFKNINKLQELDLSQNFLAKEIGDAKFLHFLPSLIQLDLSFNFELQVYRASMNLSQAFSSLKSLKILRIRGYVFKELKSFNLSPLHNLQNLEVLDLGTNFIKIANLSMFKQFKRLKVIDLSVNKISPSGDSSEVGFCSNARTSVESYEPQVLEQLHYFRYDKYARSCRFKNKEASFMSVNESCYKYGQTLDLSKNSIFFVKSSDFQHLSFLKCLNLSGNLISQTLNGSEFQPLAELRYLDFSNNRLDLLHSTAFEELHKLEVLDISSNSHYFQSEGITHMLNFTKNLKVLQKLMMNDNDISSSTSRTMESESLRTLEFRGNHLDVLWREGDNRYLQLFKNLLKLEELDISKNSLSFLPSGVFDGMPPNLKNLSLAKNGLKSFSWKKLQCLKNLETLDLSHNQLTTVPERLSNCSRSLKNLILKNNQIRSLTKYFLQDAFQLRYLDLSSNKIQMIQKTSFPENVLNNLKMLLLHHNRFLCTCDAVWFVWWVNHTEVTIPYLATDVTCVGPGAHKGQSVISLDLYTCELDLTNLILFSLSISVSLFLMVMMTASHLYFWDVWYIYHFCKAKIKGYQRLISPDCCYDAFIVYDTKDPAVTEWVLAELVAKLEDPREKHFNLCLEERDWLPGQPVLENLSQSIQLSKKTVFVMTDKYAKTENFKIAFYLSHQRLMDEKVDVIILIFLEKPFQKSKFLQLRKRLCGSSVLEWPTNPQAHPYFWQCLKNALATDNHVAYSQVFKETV
Procedure: (§1) The below tests, involving measuring the in vitro activity of some compounds of the disclosure on TLR7 and TLR8, were carried out using the HEK-Blue™ cells as reporter.
The activity described below, with respect to TLR7, TLR8, IFN-α2a, IL-6, IL29 and TNF-α, is given by the half maximal effective concentration (EC50), which corresponds to the concentration required to obtain a 50% of the activation. The lower the EC50, the less the concentration of the compound is required to produce 50% of maximum activation and the higher the potency.
(§2) In Vitro Assay for Studying the Stimulation of Human TLR7 and TLR8:
(§3) HEK-Blue™ hTLR7 Cells (#hkb-htlr7) and HEK-Blue™ hTLR8 Cells (#hkb-htlr8) from InvivoGen were used according to the manufacturer's instructions. These Reporter HEK293 cells were obtained by co-transfection of the hTLR7 or TLR8 gene and an optimized Secreted Embryonic Alkaline Phosphatase (SEAP) reporter gene which is placed under the control of the IFN-β minimal promoter fused to five NF-κB and AP-1-binding sites. Stimulation with a TLR7/8 ligand activates NF-kB and AP-1 which induce the production of SEAP. The cells are seeded in 96-well plate at 3.10E4 cells/well and incubated 18 to 24 h at 37° C., 5% CO2 before adding the compounds to evaluate. The cells are subsequently incubated with 3-fold serial dilutions of each of the compounds (0.01 to 20 μM) for 24 hours at 37° C., 5% CO2. Next, 20 μL of the supernatant is harvested and incubated with 200 μL of QUANTI-Blue™ Solution.

human TLR8 = target: T2, human TLR8 (Homo sapiens, UniProt Q9NR97); experiment: HEK-Blue hTLR8 reporter cell assay (SEAP, NF-kB/AP-1) for stimulation of human TLR8; assay type: cell-based; settings: HEK-Blue hTLR8 cells, 24 h incubation, SEAP readout; read-out: TLR8_EC50
T2 construct: host or cells: HEK293 (HEK-Blue hTLR8)
T2 sequence (Q9NR97 27-1041): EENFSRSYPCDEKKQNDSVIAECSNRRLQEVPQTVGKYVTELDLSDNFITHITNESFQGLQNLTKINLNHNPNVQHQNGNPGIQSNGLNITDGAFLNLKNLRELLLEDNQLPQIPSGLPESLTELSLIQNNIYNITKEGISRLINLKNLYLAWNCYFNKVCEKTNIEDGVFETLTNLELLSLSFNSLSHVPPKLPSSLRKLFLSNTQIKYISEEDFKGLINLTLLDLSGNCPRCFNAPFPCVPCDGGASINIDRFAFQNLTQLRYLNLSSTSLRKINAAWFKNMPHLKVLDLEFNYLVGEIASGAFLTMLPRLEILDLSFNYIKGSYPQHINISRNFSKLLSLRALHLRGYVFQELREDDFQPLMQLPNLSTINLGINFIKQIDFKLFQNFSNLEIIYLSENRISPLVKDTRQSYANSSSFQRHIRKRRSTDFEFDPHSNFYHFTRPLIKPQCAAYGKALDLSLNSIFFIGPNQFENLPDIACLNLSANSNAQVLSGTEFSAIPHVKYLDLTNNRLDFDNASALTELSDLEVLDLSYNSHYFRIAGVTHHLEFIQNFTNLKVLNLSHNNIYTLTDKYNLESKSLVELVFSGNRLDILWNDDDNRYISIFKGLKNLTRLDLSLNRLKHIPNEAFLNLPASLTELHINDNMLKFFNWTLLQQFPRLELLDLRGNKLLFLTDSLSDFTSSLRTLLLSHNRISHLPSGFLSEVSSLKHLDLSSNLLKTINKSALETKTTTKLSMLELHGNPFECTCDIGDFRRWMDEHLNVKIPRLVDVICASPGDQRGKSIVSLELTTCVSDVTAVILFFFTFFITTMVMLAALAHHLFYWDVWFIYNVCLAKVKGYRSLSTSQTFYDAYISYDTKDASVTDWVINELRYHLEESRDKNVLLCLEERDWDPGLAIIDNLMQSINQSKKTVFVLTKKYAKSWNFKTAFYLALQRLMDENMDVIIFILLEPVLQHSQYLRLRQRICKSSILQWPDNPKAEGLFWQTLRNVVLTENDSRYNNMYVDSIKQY
Procedure: as §1, §2
as §3, with “The cells are subsequently incubated with 3-fold serial dilutions of each of the compounds (0.01 to 20 μM) for 24 hours at 37° C., 5% CO2.” left out

SMILES	EC50 (human TLR7)	EC50 (human TLR8)
CCCCc1nc2c(N)nnc(OC(C)C)c2n1Cc1ccc(CN(C(C)=O)C2CS(=O)(=O)C2)cc1 [Compound 38, N-(4-((4-amino-2-butyl-7-isopropoxy-1H-imidazo[4,5-d]pyridazin-1-yl)methyl)benzyl)-N-(1,1-dioxidothietan-3-yl)acetamide]	345 nM	14700 nM
CCCCc1nc2c(N)nnc(N3CCCC3)c2n1C [Compound 42, 2-butyl-1-methyl-7-(pyrrolidin-1-yl)-1H-imidazo[4,5-d]pyridazin-4-amine]	1480 nM	8780 nM
CCCCc1nc2c(N)nnc(N(C)Cc3ccc(CN4CCOCC4)cc3)c2n1C [Compound 44, 2-butyl-N7,1-dimethyl-N7-(4-(morpholinomethyl)benzyl)-1H-imidazo[4,5-d]pyridazine-4,7-diamine]	1130 nM	467 nM
CCCCc1nc2c(N)nnc(N(C)Cc3ccc(C#N)cc3)c2n1C [Compound 45, 4-(((4-amino-2-butyl-1-methyl-1H-imidazo[4,5-d]pyridazin-7-yl)(methyl)amino)methyl)benzonitrile]	> 20000 nM	9420 nM
CCCCc1nc2c(N)nnc(N(C)Cc3ccc(CN)cc3)c2n1C [Compound 46, N7-(4-(aminomethyl)benzyl)-2-butyl-N7,1-dimethyl-1H-imidazo[4,5-d]pyridazine-4,7-diamine]	6140 nM	4070 nM
CCCCc1nc2c(N)nnc(N(C)Cc3ccc(CN(C)CCOC)cc3)c2n1C [Compound 47, 2-butyl-N7-(4-(((2-methoxyethyl)(methyl)amino)methyl)benzyl)-N7,1-dimethyl-1H-imidazo[4,5-d]pyridazine-4,7-diamine]	421 nM	223 nM
CCCCc1nc2c(N)nnc(C3CCCCC3)c2n1Cc1ccc(OC)cc1 [Compound 51, 2-butyl-7-cyclohexyl-1-(4-methoxybenzyl)-1H-imidazo[4,5-d]pyridazin-4-amine]	1020 nM	> 20000 nM
CCCCc1nc2c(N)nnc(OCc3ccccc3)c2n1Cc1ccc(OC)cc1 [Compound 52, 7-(benzyloxy)-2-butyl-1-(4-methoxybenzyl)-1H-imidazo[4,5-d]pyridazin-4-amine]	551 nM	> 20000 nM
CCCCc1nc2c(N)nnc(NC)c2n1Cc1ccc(OC)cc1 [Compound 53, 2-butyl-1-(4-methoxybenzyl)-N7-methyl-1H-imidazo[4,5-d]pyridazine-4,7-diamine]	775 nM	> 20000 nM
CCCCc1nc2c(N)nnc(O[C@H]3CCOC3)c2n1Cc1ccc(OC)cc1 [Compound 54, (S)-2-butyl-1-(4-methoxybenzyl)-7-((tetrahydrofuran-3-yl)oxy)-1H-imidazo[4,5-d]pyridazin-4-amine]	610 nM	> 20000 nM

Compounds with a lower EC50 (human TLR7), results first:

EC50 (human TLR7)	EC50 (human TLR8)	SMILES
117 nM	> 20000 nM	CCCCCCCCCCC(=O)NCc1ccc(Cn2c(CCCC)nc3c(N)nnc(OC(C)C)c32)cc1 [Compound 29, N-(4-((4-amino-2-butyl-7-isopropoxy-1H-imidazo[4,5-d]pyridazin-1-yl)methyl)benzyl)undecanamide]
161 nM	> 20000 nM	CCCCC(=O)NCc1ccc(Cn2c(CCCC)nc3c(N)nnc(OC(C)C)c32)cc1 [Compound 30, N-(4-((4-amino-2-butyl-7-isopropoxy-1H-imidazo[4,5-d]pyridazin-1-yl)methyl)benzyl)pentanamide]
326 nM	> 20000 nM	CCCCc1nc2c(N)nnc(OC(C)C)c2n1Cc1ccc(CNC(=O)CCOCCOC)cc1 [Compound 31, N-(4-((4-amino-2-butyl-7-isopropoxy-1H-imidazo[4,5-d]pyridazin-1-yl)methyl)benzyl)-3-(2-methoxyethoxy)propanamide]
19 nM	448 nM	CCCCc1nc2c(N)nnc(OC(C)C)c2n1Cc1ccc(CNC2CC2)cc1 [Compound 36, 2-butyl-1-(4-((cyclopropylamino)methyl)benzyl)-7-isopropoxy-1H-imidazo[4,5-d]pyridazin-4-amine]
317 nM	> 20000 nM	CCCCc1nc2c(N)nnc(OC(C)C)c2n1Cc1ccc(CNC2CS(=O)(=O)C2)cc1 [Compound 37, 3-((4-((4-amino-2-butyl-7-isopropoxy-1H-imidazo[4,5-d]pyridazin-yl)methyl)benzyl)amino)thietane 1,1-dioxide]
17 nM	401 nM	CCCCc1nc2c(N)nnc(OC(C)C)c2n1Cc1ccc(CNC2(C)CCC2)cc1 [Compound 39, 2-butyl-7-isopropoxy-1-(4-(((1-methylcyclobutyl)amino)methyl)benzyl)-1H-imidazo[4,5-d]pyridazin-4-amine]
21 nM	2290 nM	CCCCc1nc2c(N)nnc(OC(C)C)c2n1Cc1ccc(CN2CCNCC2)cc1 [Compound 40, 2-butyl-7-isopropoxy-1-(4-(piperazin-1-ylmethyl)benzyl)-1H-imidazo[4,5-d]pyridazin-4-amine]
269 nM	> 20000 nM	CCCCc1nc2c(N)nnc(OC)c2n1Cc1ccc(OC)cc1 [Compound 50, 2-butyl-7-methoxy-1-(4-methoxybenzyl)-1H-imidazo[4,5-d]pyridazin-4-amine]
